Test results taken from PubChem BioAssay AID200 (DTP/NCI, 2004).
Several values for one entry are separate records, joined by “and”; a condition that tells them apart may be missing. Identical values can stand only once. Inconclusive results and toxic doses are left out.

System: B6C3F1 mice, B16 melanoma ip, median survival T/C
Assay: NCI In Vivo Anticancer Drug Screen. Data for tumor model B16 Melanoma (intraperitoneal) in B6C3F1 mice
Settings: endpoint: median survival time, schedule: Q01DX009 (ip), higher = longer survival
Procedure, shortened: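 Transplantable tumor in mice; treated vs vehicle control groups; survival or tumor size measured; value = T/C ratio.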

[1] = dose: 12.5 mg/kg/injection, vehicle: saline with Tween-80
[2] = dose: 25.0 mg/kg/injection, vehicle: saline with Tween-80
[3] = dose: 50.0 mg/kg/injection, vehicle: saline with Tween-80
[4] = dose: 100.0 mg/kg/injection, vehicle: saline with Tween-80
[5] = dose: 200.0 mg/kg/injection, vehicle: saline with Tween-80
[6] = dose: 6.25 mg/kg/injection, vehicle: saline with Tween-80

SMILES: COc1c(O)cc2c(c1OC)-c1ccc(SC)c(=O)cc1C(NC(C)=O)CC2 (configuration not stated)
- T/C (dose: 1.25 mg/kg/injection, vehicle: Klucel (hydroxypropylcellulose) (HPC)): 160 % of control
- T/C (dose: 1.8 mg/kg/injection, vehicle: Klucel (hydroxypropylcellulose) (HPC)): 180 % of control and 182 % of control and 186 % of control
- T/C (dose: 2.5 mg/kg/injection, vehicle: Klucel (hydroxypropylcellulose) (HPC)): 156 % of control and 167 % of control
- T/C (dose: 3.0 mg/kg/injection, vehicle: Klucel (hydroxypropylcellulose) (HPC)): 178 % of control and 184 % of control and 198 % of control
- T/C (dose: 10.0 mg/kg/injection, vehicle: Klucel (hydroxypropylcellulose) (HPC)): 180 % of control

SMILES: CCCCC(CC)(CC(=N)C(C)(C)C)c1ccccc1 (configuration not stated)
- T/C (dose: 25.0 mg/kg/injection, vehicle: saline + Tween-80 + alcohol): 104 % of control
- T/C (dose: 50.0 mg/kg/injection, vehicle: saline + Tween-80 + alcohol): 96 % of control

SMILES: CNC(=O)/C=C/C1=CN2C(=O)c3ccc(C)c(O)c3NC(OC)C2C1 (configuration not stated)
- T/C (dose: 0.01 mg/kg/injection, vehicle: saline): 109 % of control and 106 % of control
- T/C (dose: 0.02 mg/kg/injection, vehicle: saline): 109 % of control
- T/C (dose: 0.03 mg/kg/injection, vehicle: saline): 115 % of control
- T/C (dose: 0.05 mg/kg/injection, vehicle: saline): 113 % of control and 116 % of control
- T/C (dose: 0.05 mg/kg/injection, vehicle: suspension in saline): 98 % of control
- T/C (dose: 0.1 mg/kg/injection, vehicle: saline): 117 % of control and 98 % of control
- T/C (dose: 0.1 mg/kg/injection, vehicle: suspension in saline): 97 % of control
- T/C (dose: 0.2 mg/kg/injection, vehicle: saline): 119 % of control

SMILES: O=CC=O
- T/C [1]: 114 % of control
- T/C [2]: 110 % of control
- T/C [3]: 102 % of control and 108 % of control
- T/C [4]: 114 % of control and 106 % of control
- T/C [5]: 120 % of control and 108 % of control

SMILES: Cn1c(=O)c(-c2ccccc2)[n+]([O-])c2ccccc21
- T/C [2]: 98 % of control
- T/C [3]: 122 % of control
- T/C [4]: 101 % of control
- T/C [5]: 94 % of control

SMILES: O=[N+]([O-])c1ccc(N(CCO)CCO)c2c1no[n+]2[O-]
- T/C [6]: 102 % of control
- T/C [1]: 114 % of control
- T/C [2]: 102 % of control

SMILES: CC1c2ccccc2CC(CCN(C)C)c2ccccc21 (configuration not stated)
- T/C [6]: 104 % of control
- T/C [1]: 98 % of control
- T/C [2]: 99 % of control
- T/C [3]: 95 % of control

SMILES: COC(C(=O)C(O)C(C)O)C1Cc2cc3cc(OC4CC(OC(C)=O)C(OC5CC(O)C(OC)C(C)O5)C(C)O4)cc(O)c3c(O)c2C(=O)C1OC1CC(OC2CC(OC3CC(C)(O)C(OC(=O)C(C)C)C(C)O3)C(O)C(C)O2)C(O)C(C)O1 (configuration not stated)
- T/C (dose: 0.5 mg/kg/injection, vehicle: saline with Tween-80): 158 % of control
- T/C (dose: 1.0 mg/kg/injection, vehicle: saline with Tween-80): 170 % of control

SMILES: O=C1c2cccc(NCCCNCCO)c2C(=O)c2cccc(NCCCNCCO)c21
- T/C (dose: 6.25 mg/kg/injection, vehicle: acid diluted with saline): 102 % of control
- T/C (dose: 12.5 mg/kg/injection, vehicle: acid diluted with saline): 108 % of control
- T/C (dose: 25.0 mg/kg/injection, vehicle: acid diluted with saline): 154 % of control

SMILES: NC(=O)CCC(NC(=O)OCc1ccccc1)C(=O)NCC(=O)O (configuration not stated)
- T/C (dose: 12.0 mg/kg/injection, vehicle: Klucel (hydroxypropylcellulose) (HPC)): 110 % of control
- T/C (dose: 25.0 mg/kg/injection, vehicle: Klucel (hydroxypropylcellulose) (HPC)): 98 % of control
- T/C (dose: 50.0 mg/kg/injection, vehicle: Klucel (hydroxypropylcellulose) (HPC)): 118 % of control
- T/C (dose: 100.0 mg/kg/injection, vehicle: Klucel (hydroxypropylcellulose) (HPC)): 95 % of control
- T/C (dose: 200.0 mg/kg/injection, vehicle: Klucel (hydroxypropylcellulose) (HPC)): 98 % of control
- T/C (dose: 400.0 mg/kg/injection, vehicle: Klucel (hydroxypropylcellulose) (HPC)): 103 % of control
